Results from US4045564A, “Benzimidazole derivatives useful as gastric acid secretion inhibitors” (AB Hassle, priority 1974, dated 1977).

Legend:
[1] = tested on: pentagastrin induced gastric acid secretion; experiment: Inhibition of pentagastrin induced gastric acid secretion in acute dog experiments with a modified perfusion technique (anaesthetized dog); assay type: in vivo; conditions: 10 mg/kg body weight, given into the duodenum in 0.5% Methocel suspension, pentagastrin 1-2 μg/kg
Protocol: The testing was performed in acute dog experiments with a modified perfusion technique.
The stomach of the anaesthetized dog was provided with one tube through the oesophagus for instillation of fluid and another tube via the ligated pylorus through duodenum for drainage of fluid. Saline was instilled in a volume of 5 ml/kg body weight, and the instillation fluid was changed every 15 minutes.
The samples collected were titrated to pH 7.0 with 0.04 N NaOH using a Radiometer automatic titrator, and the acid output per 15 minutes was calculated (collection periods).
Gastric acid secretion was induced by pentagastrin in 1-2 μg/kg.
The amount of active agent administered was 10 mg/kg body weight.

[2] = tested on: gastric acid secretion induced with pentagastrin; experiment: Duration of the effect in conscious dog provided with a ventricel fistula, gastric acid secretion induced with pentagastrin; assay type: in vivo
Protocol: The compounds of Examples 1, 3, and 9 have also been tested with regard to the duration of the effect obtained in conscious dog provided with a ventricel fistula, the gastric acid secretion being induced with pentagastrin. The amount of gastric acid secreted before the administration of active agent was determined using a titrator, whereupon the gastric acid secretion was determined using a titrator after administration. In the table below the inhibition in % of basic secretion has been given for two different dose levels.

SMILES	% inhibition of the pentagastrin induced gastric acid secretion [1]	% inhibition of gastric acid secretion ([2]; 1 mg/kg, 1 hr)	% inhibition of gastric acid secretion ([2]; 1 mg/kg, 2 hrs)	% inhibition of gastric acid secretion ([2]; 1 mg/kg, 3 hrs)	% inhibition of gastric acid secretion ([2]; 2 mg/kg, 1 hr)	% inhibition of gastric acid secretion ([2]; 2 mg/kg, 2 hrs)	% inhibition of gastric acid secretion ([2]; 2 mg/kg, 3 hrs)
CCOC(=O)c1ccc2[nH]c(SCc3ccccn3)nc2c1 [Example 9]	70%	20%	25%	25%	50%	60%	65%
CCc1ccc2nc(SCc3ccccn3)[nH]c2c1 [Example 3, 2-[2-pyridylmethylthio]-(5-ethyl)-benzimidazole]	86%	20%	25%	25%	50%	60%	65%
Cc1cccc2[nH]c(SCc3ccccn3)nc12 [Example 1, [2-pyridylmethylthio]-4-methyl-2-benzimidazole]	89%	20%	25%	25%	50%	60%	65%
COC(=O)n1c(SCc2ccccn2)nc2ccccc21 [Example 17, 2-[2-pyridylmethylthio]-N-methoxycarbonylbenzimidazole]	76%	–	–	–	–	–	–
CC(=O)n1c(SCc2ccccn2)nc2ccccc21 [Example 16, 2-[2-pyridylmethylthio]-N-acetylbenzimidazole]	80%	–	–	–	–	–	–
COc1ccc2[nH]c(SCc3ccccn3)nc2c1 [Example 5]	40%	–	–	–	–	–	–
